Read-outs that look alike come from different tables or passages of the source.

The subject of experiment [1] is leukemia and myeloma cell lines. To be noted: leukemia and myeloma cell lines (Xu et al., 2010); cited from earlier work.
Experiment [2] relates to mouse acute myeloid leukemia (AML model). The settings on record: mouse AML model (Xu et al., 2010); cited from earlier work.
The next experiment relates to PHTX-24C colon xenograft. Put plainly: PHTX-24C xenograft model, Compound 1 and oxaliplatin. The experiment is classed as in vivo, CB-17 SCID mice. As for the experimental part: (§1) Oxaliplatin (Jiang Su Geng Rui Pharmaceuticals, Inc.) is formulated in 0.9% saline and administered by IP injection once weekly (QW) at 7.5 or 12.5 mg/kg. The once weekly schedule is also described as every 7 days (Q7D).
(§2) Compound 1 [((1R,2R,3S,4R)-2,3-dihydroxy-4-(2-(3-(trifluoromethylthio)-phenyl)pyrazolo[1,5-a]pyrimidin-7-ylamino)cyclopentyl)methyl sulfamate] is formulated in 10-20% HPbCD in sterile water and administered intravenously (IV) or subcutaneously (SC) on a BIW (twice/week schedule; Monday and Thursday or Tuesday and Friday) for either 2-4 weeks.
(§3) Tumors were measured twice weekly using vernier calipers. Tumor volumes were calculated using the standard formula V=W^2×L/2,). When mean tumor volumes reached approximately 200 mm^3 for PHTX-24C, 220 mm^3 for PHTX-Lu132, 150 mm^3 for CTG-0256, 260 mm^3 for CTG-0486, 185 mm^3 for PHTX-17C, 260 mm^3 for CTG-0165, 150 mm^3 for PHTX-14B in the study of Compound 1 and paclitaxel, 180 mm^3 for PHTX-14B in the study of Compound 1 and docetaxel, 200 mm^3 for SKOV-3, 220 mm^3 for PHTX-02B in the study of Compound 1 and docetaxel, 250 mm^3 for PHTX-02B in the study of Compound 1 and paclitaxel, 195 mm^3 for CTG-0159, 180 mm^3 for CTG-0012 or 150 mm^3 for Calu-6, mice were randomized into groups of n=5-7/arm as described in the tables below, and injected with vehicle, Compound 1 or agents (docetaxel, paclitaxel, oxaliplatin, cisplatin or carboplatin), or the combination of Compound 1 plus one of the agents, at various doses and schedules as described in tables below. Tumor size and body weight were measured approximately twice a week for the duration of the study. Mice are euthanized when their tumor volume reached 10% of their body weight, or when the average tumor volume of a treatment or control group reached approximately 2000 mm^3. Tumor growth continued to be monitored after the dosing period in some studies. Average tumor volume is reported as a function of time for selected arms of selected studies in the Figures.
(§4) Measurements from day 0 to day 14, day 19, day 21, or day 28 are analyzed as specified in Tables below. All tumor volumes have a value of 1 added to them before log10 transformation. For each animal, the log tumor volume at day 0 is subtracted from the log tumor volume on the subsequent days. This difference vs. time is used to calculate an area under the curve (AUC) for each animal using the trapezoid rule. […] The synergy score for the combination of agents A and B is defined as
(§5) 100*(mean(AUCAB)−mean(AUCA)−mean(AUCB)+mean(AUCctl))/mean(AUCctl):
where AUCAB, AUCA, AUCB, and AUCctl are the AUC values for animals in the combination group, the A group, the B group, and the control group, respectively. […]

Experiment [3] concerns PHTX-17C colorectal carcinoma xenograft. The experiment is classed as in vivo. To be noted: for Tumor Volume Day 21: in mm³ (unit assumed).
Description: The PHTX-17C colorectal carcinoma xenograft model was established from a patient-derived tumor collected during surgery from a person with moderately differentiated adenocarcinoma.PHTX-17C tumor fragments (approximately 2×2×3 mm^3) were implanted into the subcutaneous space in the right dorsal flank of female nude mice (age 5-7 weeks, Balb/c Nude Mice, Shanghai SINO-British SIPPR/BK Lab Animal Ltd, Shanghai, China) using a 13-gauge trocar. When the mean tumor volume reached approximately 185 mm^3, the animals were randomized into 12 treatment groups (n=5/group).
as §1, §2, §3, §4, §5
where AUCAB, AUCA, AUCB, and AUCctl are the AUC values for animals in the combination group, the A group, the B group, and the control group, respectively. The standard error of the synergy score is computed based on the variation in the AUC values among the animals. […] If the P-value is above 0.05, then the combination is considered to be additive. If the P-value is below 0.05, and the synergy score is less than zero, then the combination is considered to be synergistic.

Consider `O=C1NN(c2ccc(F)c(Cl)c2)C(=O)/C1=C\c1ccc([N+](=O)[O-])o1` [PYZD-4409], for which the cell death result in experiment [1] was “induced cell death”. In experiment [2], the anti-tumor activity entry is recorded as “demonstrated anti-tumor activity”.
For the molecule `O=C1[O][Pt]2([NH][C@@H]3CCCC[C@H]3[NH]2)[O]C1=O` [oxaliplatin, reference compound], the “Tumor Volume Day 21” value is listed as 720.6 with PHTX-24C colon xenograft (7.5 mg/kg oxaliplatin Q7Dx2 IP, in mm³ (unit assumed)); 2017.5 in experiment [3] (7.5 mg/kg oxaliplatin Q7Dx3 IP); 1758.9 in experiment [3] (12.5 mg/kg oxaliplatin Q7Dx3 IP). Further, the “anti-tumor activity compared to vehicle control” value (with PHTX-24C colon xenograft (single agent oxaliplatin 7.5 mg/kg IP Q7D); in experiment [3] (single agent oxaliplatin IP at 7.5 or 12.5 mg/kg Q7D)) was “modest anti-tumor activity” in each case.

These data come from patent US20180133221A1, “ADMINISTRATION OF UBIQUITIN-ACTIVATING ENZYME INHIBITOR AND CHEMOTHERAPEUTIC AGENTS” (Millennium Pharmaceuticals, Inc., priority 2014, published 2018).
